US12403159B2, “Therapeutic metal complexes and ligands and methods of making and using the same” (Oregon State University, priority 2017, dated 2025)

Columns and labels:
G93A SOD×CCS mice = test: Survival of G93A SOD×CCS mice under treatment; type: in vivo
Experimental: In this example, G93A SOD×CCS mice were treated with 50 mg/kg/day of CuPhMeTSM transdermally starting at 4 days of age. The compound was able to keep six G93A SOD×CCS mice alive for 300 days (n=6). Results are illustrated in FIG. 10.

cytochrome c oxidase = test: Cytochrome c oxidase assay in brain and spinal cord of treated mice; type: in vivo; settings: brain (FIG. 7A) and spinal cord (FIG. 7B); dermally with DMSO, 50 mg/kg/day once daily from four days of age, measured at day 21
Experimental: Tissue Preparation for SOD and Cytochrome c Oxidase assays—Whole brains and spinal cords were rapidly dissected from euthanized transgenic mice, immediately frozen in liquid nitrogen, and then stored at −80° C. until use. To prepare brain tissue for mass spectrometry or cytochrome c oxidase assay, frozen brains were first placed on a plate on top of a slab of dry ice so that the brittle frozen tissue could warm to a temperature that allowed sectioning with a razor blade (approx. −10° C.). Motor cortex and surrounding cerebrum was then sectioned to a thickness of approximately 1 mm with a razor blade. […] The ratio of human SOD to the bovine SOD internal standard was used to calculate the concentration of human SOD detected in mouse tissue. […]
Cytochrome c oxidase assay—The assay buffer included 30 uM reduced cytochrome c in 50 mM potassium phosphate buffer pH 7.0 containing 20 μM EDTA and 24 units/ml catalase. The final dilution of reduced cytochrome c stock should yield an absorbance at 550 nm of 0.7. […] To minimize interference from turbidity, the absorbance at 550 nm minus the absorbance at 580 nm was monitored. The change in absorbance was measured for one minute. Then, 2 μl of 100 mM sodium cyanide and the absorbance change was monitored for another 20 seconds. […]

Cu,Zn SOD (human SOD) = test: Mass spectrometric assay of mature/immature SOD in CNS tissue of treated CCS×SOD^WT transgenic mice; type: in vivo; settings: CSS×SOD^WT transgenic mice; for increase in mature SOD compared to untreated SOD^WT mice: FIG. 4
Experimental: Tissue Preparation for SOD and Cytochrome c Oxidase assays—Whole brains and spinal cords were rapidly dissected from euthanized transgenic mice, immediately frozen in liquid nitrogen, and then stored at −80° C. until use. To prepare brain tissue for mass spectrometry or cytochrome c oxidase assay, frozen brains were first placed on a plate on top of a slab of dry ice so that the brittle frozen tissue could warm to a temperature that allowed sectioning with a razor blade (approx. −10° C.). Motor cortex and surrounding cerebrum was then sectioned to a thickness of approximately 1 mm with a razor blade. A 500 μm biopsy needle was used to isolate three ˜250 μg punches from each mouse tissue, which provided technical replicates for mass spectrometry and cytochrome c oxidase examples. Tissue punches were weighed using a Cahn 25 Automatic Electrobalance (Cerritos, CA, USA) with a sensitivity of ±0.1 μg. Tissue punches were homogenized for 12 seconds using a VWR Handheld cordless motorized homogenizer to a concentration of 5 μg tissue/μl of homogenization buffer. Homogenization buffer (made fresh daily) was 10 mM ammonium acetate, pH 5.0-5.1. For SOD measurements, 300 nM bovine SOD (Sigma) was added as an internal standard. The ratio of human SOD to the bovine SOD internal standard was used to calculate the concentration of human SOD detected in mouse tissue. After homogenizing, samples were centrifuged for 2 minutes at 16000×g at 4° C. in an Eppendorf 5415 R centrifuge to pellet cell debris. Supernatant was transferred to a clean tube for mass spectrometry or cytochrome c oxidase assays. […]
An LTQ-FT Ultra hybrid linear ion trap-Fourier transform ion cyclotron resonance mass spectrometer (Thermo, San Jose, Calif.) with a Finnigan Ion Max API source configured for electrospray ionization (ESI) in positive ion mode was used for all mass spectrometry experiments. All SOD quantitation was performed using the linear ion trap with scan range of 800 to 2000 m/z, which allowed for detection of SOD multiple charge states +9 through +13. […]
Data were quantified in a custom Matlab program. […]

[1] = Elimination of CuATSM in urine; settings: in vivo
Text: This crystallization and high melting point create issues with forming an orally-active CuATSM compound and prevents the use of solid dispersant methods to formulate the complex for oral delivery. As such, producing formulations having appropriate dosage limits of CuATSM remains a limitation in using this compound therapeutically, particularly in view of CuATSM's propensity to gradually crystalize out of matrices and form insoluble crystals. Large amounts of crystallized CuATSM passes into the bowels, and thereby contributes to gastrointestinal distress. […]
The low reduction potential or, phrased differently, the high copper affinity of the ATSM ligand for cupric ion (in the 2+ ionization state) prevents copper release in most tissues, but allows selective release of copper in hypoxic tissues or in cells with damaged mitochondrial electron transport chains; however, even slight modifications of the CuATSM compound (e.g., removing one or both methyl groups from the carbon atoms of the diimine functional groups) results in rapid copper release that can result in toxicity in SOD ALS models. […] See, for example, FIG. 3, which illustrates reduction (left) versus oxidation standard potentials (right) for ligand components (as determined in anhydrous DMSO). […]

[2] = Reduction versus oxidation standard potentials (anhydrous DMSO); type: physicochemical; settings: relative to CuPhMeTSM; FIG. 3
Text: The low reduction potential or, phrased differently, the high copper affinity of the ATSM ligand for cupric ion (in the 2+ ionization state) prevents copper release in most tissues, but allows selective release of copper in hypoxic tissues or in cells with damaged mitochondrial electron transport chains; however, even slight modifications of the CuATSM compound (e.g., removing one or both methyl groups from the carbon atoms of the diimine functional groups) results in rapid copper release that can result in toxicity in SOD ALS models. […] Continued treatment thus is necessary to provide sufficient copper for CCS to complete the maturation of Cu,Zn SOD. But, such continued treatment also has the potential to cause toxicity due to greater copper intake. Furthermore, given the negative reduction potential of CuATSM, it is very difficult to reduce, which is reflected in the slow efficacy in replenishing SOD and COX extending over weeks. As a consequence, the majority of CuATSM (e.g., >95%) is eliminated in urine with copper still bound. […] See, for example, FIG. 3, which illustrates reduction (left) versus oxidation standard potentials (right) for ligand components (as determined in anhydrous DMSO). […]

juvenile mice = test: Effect of free ligands on growth of juvenile mice; type: in vivo
Text: Another limitation is that the ATSM ligand component of the CuATSM complex is pharmacologically active in binding metals and thus can react in potentially undesirable side reactions.

Row | Compound | increase in COX activity (cytochrome c oxidase) | increase in mature SOD compared to untreated SOD^WT mice (Cu,Zn SOD (human SOD)) [µM] | effect on growth of juvenile mice (juvenile mice) | also measured
1 | CNC1=NN=C(C)C(c2ccccc2)=NN=C(NC)[S][Cu][S]1 [CuPhMeTSM, copper phenylmethylTSM] | nearly twice the extent of CuATSM | 60 |  | toxicity from the treatment (G93A SOD×CCS mice; G93A SOD×CCS mice, 50 mg/kg/day transdermally from 4 days of age): no toxicity apparent; time mice were kept alive (G93A SOD×CCS mice; G93A SOD×CCS mice, 50 mg/kg/day transdermally from 4 days of age, n=6): 300 days; mice still alive after receiving treatment (G93A SOD×CCS mice; low expressing G93A SOD mice crossed to CCS overexpressing mice, 50 mg/kg/day after four days of age, FIG. 10): nine out of 11; decrease in amount of immature SOD (Cu,Zn SOD (human SOD); FIG. 6): decreased most
2 | CN=C([S-])N/N=C(C)/C(C)=N/NC([S-])=NC.[Cu+2] [CuATSM] |  | 13 |  | fraction eliminated in urine with copper still bound [1]: > 95%; oxidation wave: oxidized more easily than CuPhMeTSM by [2]: ~40 mV
3 | CN/C(S)=N/N=C/C(C)=N/N=C(\S)NC [PTSM] |  |  | significant delay in growth | 
4 | copper 4-nitrophenylmethylTSM [nitro analog] | not as effective as the CuPhMeTSM embodiment |  |  | 
5 | CN/C(S)=N/N=C/C=N/N=C(\S)NC [GTSM] |  |  | significant delay in growth | 
